The numbers were not newly measured in patent US20050182029A1, “Metformin salts of lipophilic acids” (Sonus Pharmaceuticals, Inc., priority 2002, published 2005), which cites them from elsewhere.

The conditions of data set [1]: healthy human subjects.

Turning to `CN(C)C(=N)N=C(N)N` [metformin], the “maximum metformin plasma levels (Cmax)” value (controlled clinical trials, even at maximum doses) was ≤ 4000 ng/mL. Further, the steady-state plasma concentration result (usual metformin doses and dosing schedules, reached within 24 to 48 hours) is on record as “less than 1 ug/mL”. For the same compound, the colonic absorption entry in data set [1] is “poor colonic absorption”.
